How the values were obtained:
NCI-H2122 = experiment: combination cScore with sotorasib (Bliss gap around IC50) (%PoC); higher = stronger additive effect
Method in brief: (§1)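 After 24 h in 384-well plates (500 or 800 cells per well), NCI-H2122, NCI-H358 and SW837 cells received concentration matrices and grew for 72 h, except SW837, which grew for 144 h. CellTiter-Glo readings were scaled to vehicle wells and fitted with four-parameter curves. Each score is the averaged Bliss-independence difference (expected minus measured viability) over a region around both monotherapy IC50s, or at top concentrations when no IC50 was reached.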

SW837 = experiment: as above
Method in brief: as §1

SMILES: CN1CC[C@H](c2c(O)cc(O)c3c(=O)cc(-c4ccccc4Cl)oc23)[C@H](O)C1 [Flavopiridol] + C=CC(=O)N1CCN(c2nc(=O)n(-c3c(C)ccnc3C(C)C)c3nc(-c4c(O)cccc4F)c(F)cc23)[C@@H](C)C1 [sotorasib]
- combination cScore with sotorasib (NCI-H2122): 6.54
- combination cScore with sotorasib (SW837): 1.46

SMILES: Nc1nc(F)nc2c1ncn2[C@@H]1O[C@H](CO)[C@@H](O)[C@@H]1O [Fludarabine] + C=CC(=O)N1CCN(c2nc(=O)n(-c3c(C)ccnc3C(C)C)c3nc(-c4c(O)cccc4F)c(F)cc23)[C@@H](C)C1 [sotorasib]
- combination cScore with sotorasib (NCI-H2122): 9.97
- combination cScore with sotorasib (SW837): -1.86

SMILES: O=c1[nH]cc(F)c(=O)[nH]1 [Fluorouracil (5-FU)] + C=CC(=O)N1CCN(c2nc(=O)n(-c3c(C)ccnc3C(C)C)c3nc(-c4c(O)cccc4F)c(F)cc23)[C@@H](C)C1 [sotorasib]
- combination cScore with sotorasib (NCI-H2122): 2.26
- combination cScore with sotorasib (SW837): 15.4

SMILES: C[C@]12CC[C@@H]3c4ccc(O)cc4C[C@@H](CCCCCCCCC[S+]([O-])CCCC(F)(F)C(F)(F)F)[C@H]3[C@@H]1CC[C@@H]2O (stereo not given in full) [Fulvestrant] + C=CC(=O)N1CCN(c2nc(=O)n(-c3c(C)ccnc3C(C)C)c3nc(-c4c(O)cccc4F)c(F)cc23)[C@@H](C)C1 [sotorasib]
- combination cScore with sotorasib (NCI-H2122): 8.41
- combination cScore with sotorasib (SW837): 1.95

SMILES: CN(C)c1ccccc1CN1CCCN(Cc2ccccc2N(C)C)C1c1ccncc1 [GANT61] + C=CC(=O)N1CCN(c2nc(=O)n(-c3c(C)ccnc3C(C)C)c3nc(-c4c(O)cccc4F)c(F)cc23)[C@@H](C)C1 [sotorasib]
- combination cScore with sotorasib (NCI-H2122): -3.17
- combination cScore with sotorasib (SW837): -1.32

SMILES: N#CN=C(NCCCCCCOc1ccc(Cl)cc1)Nc1ccncc1 [GMX1778] + C=CC(=O)N1CCN(c2nc(=O)n(-c3c(C)ccnc3C(C)C)c3nc(-c4c(O)cccc4F)c(F)cc23)[C@@H](C)C1 [sotorasib]
- combination cScore with sotorasib (NCI-H2122): -13.8
- combination cScore with sotorasib (SW837): 7.36

SMILES: CCOC(=O)CCNc1cc(N2CCc3ccccc3CC2)nc(-c2ccccn2)n1 [GSK-J4] + C=CC(=O)N1CCN(c2nc(=O)n(-c3c(C)ccnc3C(C)C)c3nc(-c4c(O)cccc4F)c(F)cc23)[C@@H](C)C1 [sotorasib]
- combination cScore with sotorasib (NCI-H2122): -0.59
- combination cScore with sotorasib (SW837): -0.52

SMILES: CC(C)c1cc(-c2n[nH]c(=O)n2-c2ccc3c(ccn3C)c2)c(O)cc1O [Ganetespib] + C=CC(=O)N1CCN(c2nc(=O)n(-c3c(C)ccnc3C(C)C)c3nc(-c4c(O)cccc4F)c(F)cc23)[C@@H](C)C1 [sotorasib]
- combination cScore with sotorasib (NCI-H2122): -1.8
- combination cScore with sotorasib (SW837): 7.55

SMILES: Nc1ccn([C@@H]2O[C@H](CO)[C@@H](O)C2(F)F)c(=O)n1 [Gemcitabine] + C=CC(=O)N1CCN(c2nc(=O)n(-c3c(C)ccnc3C(C)C)c3nc(-c4c(O)cccc4F)c(F)cc23)[C@@H](C)C1 [sotorasib]
- combination cScore with sotorasib (NCI-H2122): 3.14
- combination cScore with sotorasib (SW837): 1.12

SMILES: COc1ncc(-c2nc3c(n2C(C)C)[C@H](c2ccc(Cl)cc2)N(c2cc(Cl)cn(C)c2=O)C3=O)c(OC)n1 [HDM-201] + C=CC(=O)N1CCN(c2nc(=O)n(-c3c(C)ccnc3C(C)C)c3nc(-c4c(O)cccc4F)c(F)cc23)[C@@H](C)C1 [sotorasib]
- combination cScore with sotorasib (NCI-H2122): 1.73
- combination cScore with sotorasib (SW837): 7.32

SMILES: CC(=O)[C@]1(O)Cc2c(O)c3c(c(O)c2[C@@H](O[C@H]2C[C@H](N)[C@H](O)[C@H](C)O2)C1)C(=O)c1ccccc1C3=O [Idarubicin] + C=CC(=O)N1CCN(c2nc(=O)n(-c3c(C)ccnc3C(C)C)c3nc(-c4c(O)cccc4F)c(F)cc23)[C@@H](C)C1 [sotorasib]
- combination cScore with sotorasib (NCI-H2122): 8.08
- combination cScore with sotorasib (SW837): 5.83

SMILES: Cc1ccc(NC(=O)c2ccc(CN3CCN(C)CC3)cc2)cc1Nc1nccc(-c2cccnc2)n1 [Imatinib] + C=CC(=O)N1CCN(c2nc(=O)n(-c3c(C)ccnc3C(C)C)c3nc(-c4c(O)cccc4F)c(F)cc23)[C@@H](C)C1 [sotorasib]
- combination cScore with sotorasib (NCI-H2122): -1.79
- combination cScore with sotorasib (SW837): 2.47

SMILES: CC(C)NC[C@@H](C(=O)N1CCN(c2ncnc3c2[C@H](C)C[C@H]3O)CC1)c1ccc(Cl)cc1 [Ipatasertib] + C=CC(=O)N1CCN(c2nc(=O)n(-c3c(C)ccnc3C(C)C)c3nc(-c4c(O)cccc4F)c(F)cc23)[C@@H](C)C1 [sotorasib]
- combination cScore with sotorasib (NCI-H2122): 12.3
- combination cScore with sotorasib (SW837): 11.4

SMILES: O=C(/C=C\n1cnc(-c2cc(C(F)(F)F)cc(C(F)(F)F)c2)n1)NNc1cnccn1 [KPT-330] + C=CC(=O)N1CCN(c2nc(=O)n(-c3c(C)ccnc3C(C)C)c3nc(-c4c(O)cccc4F)c(F)cc23)[C@@H](C)C1 [sotorasib]
- combination cScore with sotorasib (NCI-H2122): 3.63
- combination cScore with sotorasib (SW837): 0.325

SMILES: CN[C@@H](C)C(=O)N[C@H](C(=O)N1CCC[C@H]1c1nc(C(=O)c2ccc(F)cc2)cs1)C1CCCCC1 [LCL161] + C=CC(=O)N1CCN(c2nc(=O)n(-c3c(C)ccnc3C(C)C)c3nc(-c4c(O)cccc4F)c(F)cc23)[C@@H](C)C1 [sotorasib]
- combination cScore with sotorasib (NCI-H2122): 2.3
- combination cScore with sotorasib (SW837): -3.76

SMILES: COc1ccccc1-c1cc(Nc2cccc(CS(N)(=O)=O)c2)ncn1 [LDC-067] + C=CC(=O)N1CCN(c2nc(=O)n(-c3c(C)ccnc3C(C)C)c3nc(-c4c(O)cccc4F)c(F)cc23)[C@@H](C)C1 [sotorasib]
- combination cScore with sotorasib (NCI-H2122): 5.31
- combination cScore with sotorasib (SW837): 11.1

SMILES: Cc1cn(CCN2CCN(c3ccccc3-c3cc(C#N)cc(C(=O)NCCCN4CCCC4)c3)CC2)c2ccccc12 [LLY-507] + C=CC(=O)N1CCN(c2nc(=O)n(-c3c(C)ccnc3C(C)C)c3nc(-c4c(O)cccc4F)c(F)cc23)[C@@H](C)C1 [sotorasib]
- combination cScore with sotorasib (NCI-H2122): 0.73
- combination cScore with sotorasib (SW837): 9.15

SMILES: Cc1ccc(NC(=O)c2ccnc(C(F)(F)F)c2)cc1-c1cc(OCCO)nc(N2CCOCC2)c1 [LXH-254] + C=CC(=O)N1CCN(c2nc(=O)n(-c3c(C)ccnc3C(C)C)c3nc(-c4c(O)cccc4F)c(F)cc23)[C@@H](C)C1 [sotorasib]
- combination cScore with sotorasib (NCI-H2122): 7.11
- combination cScore with sotorasib (SW837): 5.53

SMILES: Nc1cccc2c1CN(C1CCC(=O)NC1=O)C2=O (stereo not given) [Lenalidomide] + C=CC(=O)N1CCN(c2nc(=O)n(-c3c(C)ccnc3C(C)C)c3nc(-c4c(O)cccc4F)c(F)cc23)[C@@H](C)C1 [sotorasib]
- combination cScore with sotorasib (NCI-H2122): 6.13
- combination cScore with sotorasib (SW837): -2.25

SMILES: O=C(O)c1nn(Cc2ccc(Cl)cc2Cl)c2ccccc12 [Lonidamine] + C=CC(=O)N1CCN(c2nc(=O)n(-c3c(C)ccnc3C(C)C)c3nc(-c4c(O)cccc4F)c(F)cc23)[C@@H](C)C1 [sotorasib]
- combination cScore with sotorasib (NCI-H2122): -0.87
- combination cScore with sotorasib (SW837): 2.86

SMILES: CC[C@H](C)C(=O)O[C@H]1C[C@@H](C)C=C2C=C[C@H](C)[C@H](CC[C@@H]3C[C@@H](O)CC(=O)O3)[C@H]21 [Lovastatin] + C=CC(=O)N1CCN(c2nc(=O)n(-c3c(C)ccnc3C(C)C)c3nc(-c4c(O)cccc4F)c(F)cc23)[C@@H](C)C1 [sotorasib]
- combination cScore with sotorasib (NCI-H2122): -1.83
- combination cScore with sotorasib (SW837): -0.46

SMILES: COc1cc(Nc2ncc3c(n2)-c2ccc(Cl)cc2C(c2c(F)cccc2OC)=NC3)ccc1C(=O)O [MLN8237] + C=CC(=O)N1CCN(c2nc(=O)n(-c3c(C)ccnc3C(C)C)c3nc(-c4c(O)cccc4F)c(F)cc23)[C@@H](C)C1 [sotorasib]
- combination cScore with sotorasib (NCI-H2122): -3.51
- combination cScore with sotorasib (SW837): 10.3

SMILES: Cc1ccc(NC(=O)c2ccc(CN3CCN(C)CC3)cc2)cc1Nc1nc(-c2cccnc2)cs1 [Masitinib] + C=CC(=O)N1CCN(c2nc(=O)n(-c3c(C)ccnc3C(C)C)c3nc(-c4c(O)cccc4F)c(F)cc23)[C@@H](C)C1 [sotorasib]
- combination cScore with sotorasib (NCI-H2122): 17.9
- combination cScore with sotorasib (SW837): -1.47

SMILES: C[C@H](Cc1ccc(O)c(O)c1)[C@@H](C)Cc1ccc(O)c(O)c1 [Masoprocol] + C=CC(=O)N1CCN(c2nc(=O)n(-c3c(C)ccnc3C(C)C)c3nc(-c4c(O)cccc4F)c(F)cc23)[C@@H](C)C1 [sotorasib]
- combination cScore with sotorasib (NCI-H2122): -1.02
- combination cScore with sotorasib (SW837): 1.64

SMILES: N[C@@H](Cc1ccc(N(CCCl)CCCl)cc1)C(=O)O [Melphalan] + C=CC(=O)N1CCN(c2nc(=O)n(-c3c(C)ccnc3C(C)C)c3nc(-c4c(O)cccc4F)c(F)cc23)[C@@H](C)C1 [sotorasib]
- combination cScore with sotorasib (NCI-H2122): 2.92
- combination cScore with sotorasib (SW837): 4.26

SMILES: CN(C)C(=N)NC(=N)N [Metformin] + C=CC(=O)N1CCN(c2nc(=O)n(-c3c(C)ccnc3C(C)C)c3nc(-c4c(O)cccc4F)c(F)cc23)[C@@H](C)C1 [sotorasib]
- combination cScore with sotorasib (NCI-H2122): 5.93
- combination cScore with sotorasib (SW837): -0.945

SMILES: CN(Cc1cnc2nc(N)nc(N)c2n1)c1ccc(C(=O)N[C@@H](CCC(=O)O)C(=O)O)cc1 [Methotrexate] + C=CC(=O)N1CCN(c2nc(=O)n(-c3c(C)ccnc3C(C)C)c3nc(-c4c(O)cccc4F)c(F)cc23)[C@@H](C)C1 [sotorasib]
- combination cScore with sotorasib (NCI-H2122): -3.03
- combination cScore with sotorasib (SW837): -3.51

SMILES: CO[C@@]12[C@H](COC(N)=O)C3=C(C(=O)C(C)=C(N)C3=O)N1C[C@@H]1N[C@@H]12 [Mitomycin C] + C=CC(=O)N1CCN(c2nc(=O)n(-c3c(C)ccnc3C(C)C)c3nc(-c4c(O)cccc4F)c(F)cc23)[C@@H](C)C1 [sotorasib]
- combination cScore with sotorasib (NCI-H2122): 11
- combination cScore with sotorasib (SW837): 4.84

SMILES: CCc1cccc(CC)c1NC(=O)c1nn(C)c2c1CCc1cnc(Nc3ccc(C(=O)NC4CCN(C)CC4)cc3OC(F)(F)F)nc1-2 [NMS-P715] + C=CC(=O)N1CCN(c2nc(=O)n(-c3c(C)ccnc3C(C)C)c3nc(-c4c(O)cccc4F)c(F)cc23)[C@@H](C)C1 [sotorasib]
- combination cScore with sotorasib (NCI-H2122): 2.28
- combination cScore with sotorasib (SW837): 13.2

SMILES: O=c1cc(N2CCOCC2)oc2c(-c3cccc4c3sc3ccccc34)cccc12 [NU-7441] + C=CC(=O)N1CCN(c2nc(=O)n(-c3c(C)ccnc3C(C)C)c3nc(-c4c(O)cccc4F)c(F)cc23)[C@@H](C)C1 [sotorasib]
- combination cScore with sotorasib (NCI-H2122): 15
- combination cScore with sotorasib (SW837): 9.27
